Data published in PMC12169614, “Exploring Long Arm Amide-Linked Side Chains in the Design of Antifungal Azole Inhibitors of Sterol 14α-Demethylase (CYP51)” (Journal of Medicinal Chemistry, 2025).

Experiments:
Y1 = assay: MIC80 determination, C. albicans clinical isolate Y1; format: cell-based; settings: Candida albicans, pH 7, 24 h
Description: (§1) Cells were seeded at an OD600 nm of 0.005 (1.5 × 10^4 CFU), and the plates were incubated at 30 °C with shaking at 200 rpm for 48 h for S. cerevisiae strains and 24 h for C. albicans . Cell growth was assessed by measuring the OD600 nm using a Synergy 2 multimode plate reader (BioTek Instruments, VT, USA). Each MIC80 was determined using triplicate measurements for pools of 4 clones of each strain in three separate experiments.

Y71 SC5314 = assay: MIC80 determination, C. albicans clinical isolate Y71 SC5314; format: cell-based; settings: Candida albicans
Description: as §1

Y610 FHB1 = assay: MIC80 determination, C. albicans clinical isolate Y610 FHB1; format: cell-based; settings: Candida albicans; C. albicans clinical isolate Y610 FHB1 (weakly expresses CaCDR1); pH 7, 24 h
Description: as §1

Y2374 OE CgCYP51 = assay: MIC80 determination, strain Y2374; format: cell-based, S. cerevisiae; settings: Saccharomyces cerevisiae
Description: as §1

Y2716 OE CpCYP51 Y132F = assay: MIC80 determination, strain Y2716; format: cell-based, S. cerevisiae
Description: as §1

Y570 OE CaCDR1B = assay: MIC80 determination, strain Y570; format: cell-based, S. cerevisiae
Description: as §1

Y2651 OE CYP51 F5 RaCPR = assay: MIC80 determination, strain Y2651; format: cell-based, S. cerevisiae; settings: Saccharomyces cerevisiae
Description: as §1

[1] = test system: Y2513 ScCYP51 Y140H mutant; assay: Agarose (disk) diffusion assay, strain Y2513; format: cell-based, S. cerevisiae; settings: 10 nmol/disk, 30 °C, 48 h
Excerpt: (§2) Final compounds were screened as racemic mixtures using agarose diffusion assays to visualize their inhibitory activity against a panel of recombinant S. cerevisiae strains i.e., S. cerevisiae strains expressing control levels of wild-type CYP51 (ScCYP51), overexpressed wild-type ScCYP51, overexpressed azole-resistant ScCYP51 Y140F/H mutations and overexpressed C. albicans efflux pumps MDR1a or CDR1B (Figure and Table S1).
(§3) The susceptibilities of S. cerevisiae and Candida species strains to azole compounds were observed as zones of growth inhibition in agarose diffusion assays. The disk diffusion assays were carried out as described by Keniya et al. Complete supplement mixture (CSM) agarose (0.6% agarose [wt/vol]; 20 mL of synthetic defined medium (SD); pH 6.8–7) was solidified in a rectangular Petri dish which was overlaid with CSM agarose (0.6% [wt/vol]; 5 mL; pH 6.8–7) seeded with yeast cells at an optical density (OD600) of 0.008 (118,000 cells per 1 mL of overlay). Azole compounds (10 nmol/disk) were applied to sterile BBL paper disks (Becton Dickinson Co., Sparks, MD) and placed on solidified overlays. Cell growth was assessed after incubation at 30 °C for 48 h.

Y2411 Endog. ScCYP51 = assay: MIC80 determination, strain Y2411; format: cell-based, S. cerevisiae; settings: Saccharomyces cerevisiae
Description: as §1

Y2721 OE CpCYP51 = assay: MIC80 determination, strain Y2721; format: cell-based, S. cerevisiae
Description: as §1

[2] = test system: Y2747 OE AfCYP51B AfCPR AfERG6; assay: MIC80 determination, strain Y2747; format: cell-based, S. cerevisiae
Description: as §1

2711 CnCYP51 OE CnCPR = assay: MIC80 determination, strain 2711; format: cell-based, S. cerevisiae
Description: as §1

Y2300 OE ScCYP51 = assay: MIC80 determination, strain Y2300; format: cell-based, S. cerevisiae; settings: Saccharomyces cerevisiae
Description: as §1

Y611 FHB3 = assay: MIC80 determination, C. albicans clinical isolate Y611 FHB3; format: cell-based; settings: Candida albicans, 24 h, pH 7
Description: as §1

Y2459 OE CaCYP51 CaCpr = assay: MIC80 determination, strain Y2459; format: cell-based, S. cerevisiae
Description: as §1

Y525 OE CaMDR1a = assay: MIC80 determination, strain Y525; format: cell-based, S. cerevisiae
Description: as §1

[3] = test system: Y525 MFS efflux pump CaMDR1a overexpressed; assay: Agarose (disk) diffusion assay, strain Y525; format: cell-based, S. cerevisiae; settings: 10 nmol/disk, 30 °C, 48 h
Excerpt: as §2, §3

[4] = test system: Y570 ABC efflux pump CaCDR1B overexpressed; assay: Agarose (disk) diffusion assay, strain Y570; format: cell-based, S. cerevisiae; settings: 10 nmol/disk, 30 °C, 48 h
Excerpt: as §2, §3

[5] = test system: Y2301 ScCYP51 Y140F mutant; assay: Agarose (disk) diffusion assay, strain Y2301; format: cell-based, S. cerevisiae; settings: 10 nmol/disk, 30 °C, 48 h
Excerpt: as §2, §3

Y2649 OE CYP51 F1 RaCPR = assay: MIC80 determination, strain Y2649; format: cell-based, S. cerevisiae
Description: as §1

Y2513 OE ScCYP51 Y140H = assay: MIC80 determination, strain Y2513; format: cell-based, S. cerevisiae; settings: Saccharomyces cerevisiae
Description: as §1

Y433 OE CgCDR1 = assay: MIC80 determination, strain Y433; format: cell-based, S. cerevisiae; settings: Saccharomyces cerevisiae
Description: as §1

[6] = test system: Y2746 OE AfCYP51A AfCPR AfERG6; assay: MIC80 determination, strain Y2746; format: cell-based, S. cerevisiae; settings: Saccharomyces cerevisiae
Description: as §1

Y2301 OE ScCYP51 Y140F = assay: MIC80 determination, strain Y2301; format: cell-based, S. cerevisiae; settings: Saccharomyces cerevisiae
Description: as §1

[7] = test system: Y2411 azole sensitive control strain; assay: Agarose (disk) diffusion assay, strain Y2411; format: cell-based, S. cerevisiae; settings: 10 nmol/disk, 30 °C, 48 h
Excerpt: as §2, §3

[8] = test system: Y2300 ScCYP51 overexpressed; assay: Agarose (disk) diffusion assay, strain Y2300; format: cell-based, S. cerevisiae; settings: 10 nmol/disk, 30 °C, 48 h
Excerpt: as §2, §3

wild-type CaCYP51 = wild-type CaCYP51 (Candida albicans, UniProt P10613); assay: Reconstituted CYP51 activity assay, wild type; format: biochemical, C. albicans; settings: 1 μM CaCyp51, 50 μM lanosterol; duplicate, mean ± SD
Description: (§4) The reconstituted CYP51 assay previously described contained 1 μM CaCyp51, 2 μM Homo sapiens cytochrome P450 reductase and 50 μM lanosterol in a final volume of 500 μL. After the addition of azole in DMSO (2.5 μL), reactions were incubated at 37 °C for 10 min prior to initiation by the addition of 100 μL 20 mM β-NADPH-Na4. Sterol substrates and products were extracted with ethyl acetate, derivatized with N,O-bis(trimethylsilyl)-trifluoroacetamide (BSTFA)–trimethylchlorosilane (TMCS) (99:1) in the presence of anhydrous pyridine, and analyzed by GC/MS as described previously. IC50 determinations were performed in duplicate. Nonlinear regression of inhibitor concentration vs normalized response was calculated by GraphPad Prism 10.4.0 for Windows (GraphPad Software, Boston, Massachusetts, USA, www.graphpad.com).

CaCYP51 Y132F = CaCYP51 Y132F (Candida albicans, UniProt P10613, Y132F); settings: footnote b; ref number not given; cited from earlier work
CaCYP51 Y132H + K143R = CaCYP51 Y132H + K143R (Candida albicans, UniProt P10613, K143R/Y132H); assay: Reconstituted CYP51 activity assay, Y132H + K143R; format: biochemical, C. albicans; settings: 1 μM CaCyp51, 50 μM lanosterol; duplicate, mean ± SD
Description: as §4

CYP3A4 = CYP3A4 (Homo sapiens, UniProt P08684); parameters: method as in numbers not given; settings: literature values for azole antifungals; ref numbers not given; cited from earlier work
[9] = Saccharomyces cerevisiae, 48 h, pH 6.8

CaCYP51 Y132F, sequence (P10613 whole entry Y132F): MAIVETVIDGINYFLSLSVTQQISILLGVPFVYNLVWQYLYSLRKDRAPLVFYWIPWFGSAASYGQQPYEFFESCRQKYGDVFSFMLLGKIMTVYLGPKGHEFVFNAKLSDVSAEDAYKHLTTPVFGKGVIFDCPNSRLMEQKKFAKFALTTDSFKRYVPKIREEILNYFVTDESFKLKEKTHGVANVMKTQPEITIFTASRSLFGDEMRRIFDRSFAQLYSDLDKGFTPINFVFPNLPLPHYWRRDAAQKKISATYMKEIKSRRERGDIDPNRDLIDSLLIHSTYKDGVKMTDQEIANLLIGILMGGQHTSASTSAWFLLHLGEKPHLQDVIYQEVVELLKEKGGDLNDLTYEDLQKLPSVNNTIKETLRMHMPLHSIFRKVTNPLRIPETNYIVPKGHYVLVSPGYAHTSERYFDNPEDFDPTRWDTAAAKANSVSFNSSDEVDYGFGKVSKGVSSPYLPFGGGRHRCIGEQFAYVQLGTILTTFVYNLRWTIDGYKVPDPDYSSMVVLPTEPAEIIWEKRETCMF
wild-type CaCYP51, sequence (P10613 whole entry): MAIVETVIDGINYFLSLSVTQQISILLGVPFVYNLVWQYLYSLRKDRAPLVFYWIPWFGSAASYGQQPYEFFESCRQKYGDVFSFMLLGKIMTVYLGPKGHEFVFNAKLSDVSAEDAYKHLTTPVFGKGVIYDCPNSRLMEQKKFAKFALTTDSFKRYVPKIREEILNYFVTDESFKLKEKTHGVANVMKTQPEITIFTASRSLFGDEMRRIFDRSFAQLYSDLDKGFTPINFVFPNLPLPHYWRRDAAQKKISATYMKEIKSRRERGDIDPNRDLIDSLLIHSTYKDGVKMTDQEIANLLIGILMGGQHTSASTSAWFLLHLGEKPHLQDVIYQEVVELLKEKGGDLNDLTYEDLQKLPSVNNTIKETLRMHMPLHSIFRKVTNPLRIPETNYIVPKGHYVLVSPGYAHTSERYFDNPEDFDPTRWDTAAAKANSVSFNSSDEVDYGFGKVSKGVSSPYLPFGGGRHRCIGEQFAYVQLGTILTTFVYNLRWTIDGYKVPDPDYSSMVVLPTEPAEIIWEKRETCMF
CaCYP51 Y132H + K143R, sequence (P10613 whole entry Y132H/K143R): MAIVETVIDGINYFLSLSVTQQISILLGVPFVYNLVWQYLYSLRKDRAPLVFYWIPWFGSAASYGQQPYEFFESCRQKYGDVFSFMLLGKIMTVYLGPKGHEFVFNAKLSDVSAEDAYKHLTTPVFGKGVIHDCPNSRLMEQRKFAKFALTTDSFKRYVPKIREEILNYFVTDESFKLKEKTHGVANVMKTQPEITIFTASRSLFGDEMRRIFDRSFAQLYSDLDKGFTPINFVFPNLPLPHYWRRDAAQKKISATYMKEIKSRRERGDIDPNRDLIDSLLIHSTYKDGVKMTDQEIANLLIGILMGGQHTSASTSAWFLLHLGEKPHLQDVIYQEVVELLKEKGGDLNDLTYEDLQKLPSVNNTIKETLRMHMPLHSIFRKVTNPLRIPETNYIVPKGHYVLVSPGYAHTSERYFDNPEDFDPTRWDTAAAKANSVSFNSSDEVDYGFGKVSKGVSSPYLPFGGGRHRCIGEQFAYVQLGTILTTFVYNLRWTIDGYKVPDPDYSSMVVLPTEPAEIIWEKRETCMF
CYP3A4, sequence (P08684 whole entry): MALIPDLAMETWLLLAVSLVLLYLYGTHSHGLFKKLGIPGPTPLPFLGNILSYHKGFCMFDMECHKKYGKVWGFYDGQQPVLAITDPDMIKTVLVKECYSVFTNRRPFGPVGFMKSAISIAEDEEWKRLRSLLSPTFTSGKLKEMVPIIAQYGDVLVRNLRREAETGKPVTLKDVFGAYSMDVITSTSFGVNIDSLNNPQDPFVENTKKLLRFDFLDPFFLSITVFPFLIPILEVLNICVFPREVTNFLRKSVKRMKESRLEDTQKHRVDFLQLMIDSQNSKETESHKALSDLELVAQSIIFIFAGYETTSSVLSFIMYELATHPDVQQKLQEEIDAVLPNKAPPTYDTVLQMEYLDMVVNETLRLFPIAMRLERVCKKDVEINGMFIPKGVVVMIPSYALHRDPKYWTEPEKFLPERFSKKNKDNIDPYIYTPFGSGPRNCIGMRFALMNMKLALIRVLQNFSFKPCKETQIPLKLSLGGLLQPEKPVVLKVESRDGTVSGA

O=C(NCC(O)(Cn1cncn1)c1ccc(F)cc1F)c1ccc2cc(F)ccc2c1 (centres unmarked) [Compound 14, N-(2-(2,4-Difluorophenyl)-2-hydroxy-3-(1H-1,2,4-triazol-1-yl)propyl)-6-fluoro-2-naphthamide]
MIC80 (Y1): 0.01 µM
MIC (Y71 SC5314; SC5314, supplement csv): 18 nM
MIC80 (Y71 SC5314; C. albicans clinical isolate Y71 SC5314, pH 7, 24 h): 0.018 µM
MIC80 (Y610 FHB1): 0.075 µM
MIC80 (Y2374 OE CgCYP51): 0.047 ± 0.006 µM
MIC (Y2374 OE CgCYP51; read-out: MIC (nM) C. glabrate model Y2374): 47 ± 6 nM
increase in resistance owing to the CpCYP51 Y132F mutation (Y2716 OE CpCYP51 Y132F; MIC80 Y2716 versus Y2721): > 19 fold
MIC80 (Y2716 OE CpCYP51 Y132F; Saccharomyces cerevisiae): 1 µM
MIC (Y570 OE CaCDR1B; Candida albicans, read-out: MIC (nM) C. albicans model Y570): 33500 nM
MIC80 (Y570 OE CaCDR1B; [9]): 33.5 µM
MIC80 (Y2651 OE CYP51 F5 RaCPR): 3.5 µM
zone of growth inhibition (inhibitory activity in words) [1]: showed activity
MIC80 (Y2411 Endog. ScCYP51; strain Y2411 Endog. ScCYP51, SD pH 6.8, 30 °C, 48 h): 0.015 ± 0.003 µM
MIC (Y2411 Endog. ScCYP51; supplement csv, read-out: MIC (nM) S. cerevisiae Y2411): 15 ± 3 nM
MIC80 (Y2721 OE CpCYP51; Saccharomyces cerevisiae): 0.024 µM
MIC (Y2721 OE CpCYP51; read-out: MIC (nM) C. parapsilosis model Y2721): 24 nM
MIC ([2]; Aspergillus fumigatus, read-out: MIC (nM) A. fumigatus model Y2747): 300 nM
MIC80 ([2]; Saccharomyces cerevisiae): 0.3 µM
MIC80 (2711 CnCYP51 OE CnCPR; Saccharomyces cerevisiae): 0.005 µM
MIC (2711 CnCYP51 OE CnCPR; read-out: MIC (nM) C. neoformans model Y2711): 5 nM
MIC80 (Y2300 OE ScCYP51; 48 h, pH 6.8): 0.048 ± 0.004 µM
MIC (Y2300 OE ScCYP51; read-out: MIC (nM) S. cerevisiae Y2300): 48 ± 4 nM
MIC80 (Y611 FHB3): 2.4 µM
MIC80 (Y2459 OE CaCYP51 CaCpr; [9]): 0.054 ± 0.021 µM
MIC (Y2459 OE CaCYP51 CaCpr; read-out: MIC (nM) C. albicans model Y2459): 54 ± 21 nM
MIC80 (Y525 OE CaMDR1a; [9]): > 1 µM
MIC (Y525 OE CaMDR1a; read-out: MIC (nM) C. albicans model Y525): > 1000 nM
zone of growth inhibition (inhibitory activity in words) [3]: reduced effect
zone of growth inhibition (inhibitory activity in words) [4]: no effect
zone of growth inhibition (inhibitory activity in words) [5]: showed activity
MIC (Y2649 OE CYP51 F1 RaCPR; Rhizopus arrhizus, read-out: MIC (nM) R. arrhizus model Y2649): 83 nM
MIC80 (Y2649 OE CYP51 F1 RaCPR; Saccharomyces cerevisiae): 0.083 µM
MIC80 (Y2513 OE ScCYP51 Y140H; 48 h, pH 6.8): 0.632 ± 0.123 µM
MIC (Y2513 OE ScCYP51 Y140H; read-out: MIC (nM) S. cerevisiae Y2513): 632 ± 123 nM
MIC80 (Y433 OE CgCDR1): 9.2 ± 0.707 µM
MIC80 [6]: > 15 µM
MIC80 (Y2301 OE ScCYP51 Y140F; 48 h, pH 6.8): 0.326 ± 0.048 µM
MIC (Y2301 OE ScCYP51 Y140F; read-out: MIC (nM) S. cerevisiae Y2301): 326 ± 48 nM

O=C(Nc1ccc(CNC(=O)C(Cn2cncn2)c2ccc(F)cc2F)cc1)c1ccc(Cl)cc1 (centres unmarked) [Compound 44, 4-Chloro-N-(4-((2-(2,4-difluorophenyl)-3-(1H-1,2,4-triazol-1-yl)propanamido)methyl)phenyl)benzamide]
zone of growth inhibition (inhibitory activity in words) [1]: reduced activity
zone of growth inhibition (inhibitory activity in words) [3]: retained some inhibitory activity
zone of growth inhibition (inhibitory activity in words) [4]: not the CaCDR1B expressing strain
zone of growth inhibition (inhibitory activity in words) [5]: reduced activity
zone of growth inhibition (inhibitory activity in words) [7]: strongly inhibited
zone of growth inhibition (inhibitory activity in words) [8]: strongly inhibited

O=C(Nc1ccc(CNC(=O)C(Cn2cncn2)c2ccc(F)cc2F)cc1)c1cccnc1 (centres unmarked) [Compound 47, N-(4-((2-(2,4-Difluorophenyl)-3-(1H-1,2,4-triazol-1-yl)propanamido)methyl)phenyl)nicotinamide]
zone of growth inhibition (inhibitory activity in words) [7]: poorly inhibited
zone of growth inhibition (inhibitory activity in words) [8]: did not inhibit

OC(Cn1cncn1)(Cn1cncn1)c1ccc(F)cc1F [FLC, fluconazole, reference compound]
IC50 (wild-type CaCYP51): 0.335 ± 0.017 µM
IC50 (CaCYP51 Y132F): 0.606 ± 0.066 µM
IC50 (CaCYP51 Y132H + K143R): 25.7 ± 3.55 µM

O[C@@](Cn1cnnn1)(c1ccc(F)cc1F)C(F)(F)c1ccc(-c2ccc(OCC(F)(F)F)cc2)cn1 [VT-1161, Oteseconazole]
IC50 (CYP3A4): 140 µM
